From ChEMBL document CHEMBL4138238, “A minimalistic approach to develop new anti-apicomplexa polyamines analogs” (Eur J Med Chem, 2018)
Calls of active or inactive are those of the source. The calls are words filed in the database; no cut-off is given here.

How the values were obtained:
Plasmodium falciparum [1] = assay: microbe, parasite or virus in culture; details: W2, 48 h
[2] = Selectivity index, ratio of IC50 for African green monkey Vero cells to IC50 for chloroquine-resistant Plasmodium falciparum W2; format: toxicity; details: read-out: Ratio IC50
[3] = Selectivity index, ratio of IC50 for African green monkey Vero cells to IC50 for chloroquine-sensitive Plasmodium falciparum D6; format: toxicity; details: read-out: Ratio IC50
Plasmodium falciparum [4] = assay: microbe, parasite or virus in culture; details: D6, 48 h
Vero = assay: Cytotoxicity against African green monkey Vero cells assessed as reduction in cell viability after 48 hrs; format: cell-based; details: Chlorocebus sabaeus
Toxoplasma gondii [5] = assay: Growth inhibition of GFP-fused Toxoplasma gondii RH infected in HFF at 1 uM after 3 days by fluorescence microscopic method relative to control; format: functional; details: for inhibition of growth at 1 µM: 72 h, read-out: GI
Toxoplasma gondii [6] = assay: Antiparasitic activity against Toxoplasma gondii RH infected in HFF treated at 4 hrs post infection measured at 5 days post infection by crystal violet staining based method; format: functional, organism-based
HFF = assay: Cytotoxicity against HFF cells at 10 uM; format: cell-based; details: human

| Compound | IC50 (Plasmodium falciparum [1]) | selectivity ratio [2] | selectivity ratio [3] | IC50 (Plasmodium falciparum [4]) | IC50 (Vero) | inhibition of growth at 1 µM (Toxoplasma gondii [5]) | IC50 (Toxoplasma gondii [6]) | Activity (HFF) | growth inhibition (GI) (Toxoplasma gondii [5]) |
| --- | --- | --- | --- | --- | --- | --- | --- | --- | --- |
| COc1cc(CNCCCCNCc2ccc(OCc3ccccc3)c(OC)c2)ccc1OCc1ccccc1 | 0.49 µM | > 18.4 | > 27.4 | 0.33 µM | > 4.46 mg/L | 50% | – | – | – |
| COc1cc(CNCCCCCCCCCCNCc2ccc(OCc3ccccc3)c(OC)c2)ccc1OCc1ccccc1 | 1.05 µM | > 7.2 | > 6.8 | 1.12 µM | > 4.46 mg/L | 25% | – | – | – |
| COc1ccc(CNCCCCCCCCCCNCc2ccc(OC)cc2)cc1 | 0.67 µM | > 17 | > 19 | 0.6 µM | > 4.46 mg/L | 50% | – | – | – |
| COc1cc(CNCCCNCc2ccc(OCc3ccccc3)c(OC)c2)ccc1OCc1ccccc1 | 0.47 µM | – | – | 0.42 µM | – | 100% | 1.53 µM | Non-Toxic | – |
| CCc1nc(N)nc(N)c1-c1ccc(Cl)cc1 | – | – | – | – | – | – | – | – | inactive |
| COc1ccc(CNCCCCCCCCNCc2ccc(OC)c(O)c2)cc1O | 5.52 µM | > 2.1 | > 2.38 | 4.8 µM | > 4.46 mg/L | 25% | – | – | – |
| COc1ccc(CNCCCCCCCCCCNCc2ccc(OC)c(O)c2)cc1O | 1.88 µM | > 5.7 | > 5.41 | 1.97 µM | > 4.46 mg/L | 25% | – | – | – |
| COc1ccc(CNCCCCNCc2ccc(OC)cc2)cc1 | 6.69 µM | > 2.2 | > 3.2 | 4.57 µM | > 4.46 mg/L | 25% | – | – | – |
| COc1ccc(CNCCCCCCNCc2ccc(OC)cc2)cc1 | 3.36 µM | 2.5 | 2.4 | 3.08 µM | – | 25% | – | – | – |
| COc1cc(CNCCCCCCCCNCc2ccc(OCc3ccccc3)c(OC)c2)ccc1OCc1ccccc1 | 0.43 µM | 10.5 | 14.6 | 0.31 µM | 4.52 µM | – | – | – | inactive |
| COc1cc(CNCCCCCCCCCCCCNCc2ccc(OCc3ccccc3)c(OC)c2)ccc1OCc1ccccc1 | 1.37 µM | > 5.3 | > 5.67 | 1.28 µM | > 4.46 mg/L | 25% | – | – | – |
| COc1ccc(CNCCCNCc2ccc(OC)cc2)cc1 | 5.41 µM | > 2.8 | > 4.8 | 3.18 µM | > 4.46 mg/L | 50% | – | – | – |
| COc1ccc(CNCCCNCc2ccc(OC)c(O)c2)cc1O | > 8 µM | – | – | > 8 µM | > 4.46 mg/L | – | – | – | – |
| COc1ccc(CNCCCCCCNCc2ccc(OC)c(O)c2)cc1O | > 8 µM | – | – | > 8 µM | > 4.46 mg/L | 50% | – | – | – |
| COc1ccc(CNCCCCCCCCCCCCNCc2ccc(OC)cc2)cc1 | 1.86 µM | > 5.8 | > 6.8 | 1.58 µM | > 4.46 mg/L | 75% | – | – | – |
| COc1ccc(CNCCCCNCc2ccc(OC)c(O)c2)cc1O | > 8 µM | – | – | > 8 µM | > 4.46 mg/L | 75% | – | – | – |
| COc1ccc(CNCCCCCCCCCCCCNCc2ccc(OC)c(O)c2)cc1O | 2.88 µM | > 3.5 | > 5.1 | 1.97 µM | > 4.46 mg/L | 25% | – | – | – |
| c1ccc(CNCCCNCc2ccccc2)cc1 | 2.63 µM | > 7.1 | > 7.9 | 2.35 µM | > 4.46 mg/L | 25% | – | – | – |
| C[C@@H]1CC[C@H]2[C@@H](C)C(=O)O[C@@H]3O[C@@]4(C)CC[C@@H]1[C@]32OO4 [ARTEMISININ] | 0.094 µM | – | – | 0.094 µM | – | – | – | – | – |
| COc1cc(CNCCCCCCNCc2ccc(OCc3ccccc3)c(OC)c2)ccc1OCc1ccccc1 | 0.44 µM | > 19 | > 31.7 | 0.26 µM | > 4.46 mg/L | 25% | – | – | – |
| COc1ccc(CNCCCCCCCCNCc2ccc(OC)cc2)cc1 | 1.69 µM | > 7.3 | > 8.4 | 1.48 µM | > 4.46 mg/L | 25% | – | – | – |
